The results in this text go back to US20030110524A1, “TRANSGENIC ORGANISMS AND THEIR USES” (priority 1997, published 2003).

Test [1] concerns lung fibroblast cells derived from control rats. The test can be described thus: Survival of lung fibroblast cells from control rats with drugs. It counts as cell-based, rat. To be noted: for Survival of lung fibroblast cells (related to number of cells in control cultures without drug): control rat cells, drugs added at day 2, geneticin 400 μg/ml, 5FC 100 μg/ml. How it is done: (§1) Fibroblast cultures derived from lung of adult CD2/neo^r, TG/TK/neo^r and control animals were produced and expanded by routine methods (Freshney (1987), Alan R. Liss, New York). Twenty-four hours after plating, geneticin (400 μg/ml) was added to cultures originating from both types of transgenic rats and from control rats, and replaced every three days with fresh medium. When required, cells were subcultured (1:3) to prevent them becoming confluent, again by basic culture methods (Freshney 1987). Cell counts were made manually in 20 fields chosen randomly and the values at each time point, after allowing for changes due to subculturing, were aggregated. […] In the absence of added geneticin, no change in cell survival from either of the transgenic animals was observed.
(§2) The effects of 5-fluorocytosine (5FC) were also determined. 5-fluorocytosine at a concentration of 100 μg/ml had no effect on fibroblast cells derived from control animals or from the TG/TK/neo^r transgenic. In the cells derived from the CD2/neo^r transgenic animal, however, 94% of the originally-plated cells died, or were non-functional (as determined by their failure to exclude trypan blue) after 10 days culture in the presence of 5FC (Table 2).
(§3) Drugs were added at day 2 in culture. Values are related to the number of cells found in control cultures without drug additions at various times after plating, and allowing for dilutions resulting from passaging. Figures are the means of three separate determinations, the standard errors all being less than 15% of the mean.

Test [2] deals with lung fibroblast cells derived from TG/TK/neo^r transgenic rats. The experiment in a line: Survival of lung fibroblast cells from TG/TK/neo^r transgenic rats with drugs. It counts as cell-based, rat. To be noted: for Survival of lung fibroblast cells (related to number of cells in control cultures without drug): TG/TK/neo^r rat cells, drugs added at day 2, geneticin 400 μg/ml, 5FC 100 μg/ml. How it is done:
as §1, §2, §3

Test [3] relates to lung fibroblast cells derived from CD2/neo^r transgenic rats. The experiment in a line: Survival of lung fibroblast cells from CD2/neo^r transgenic rats with drugs. It counts as cell-based, rat. To be noted: for Survival of lung fibroblast cells (related to number of cells in control cultures without drug): CD2/neo^r rat cells, drugs added at day 2, geneticin 400 μg/ml, 5FC 100 μg/ml. How it is done:
as §1, §2, §3

For test [4], the system named is thyroid cells derived from control rats. The experiment in a line: Survival of thyroid cells from control rats with drugs. The class given is cell-based, rat. To be noted: for Survival of thyroid cells (related to number of cells in control cultures without drug): control rat cells, drugs added at day 2, geneticin 400 μg/ml, ACG 10 μg/ml. How it is done:
(§4) Thyroid cultures derived from the thyroid gland of adult CD2/neo^r, TG/TK/neo^r and control animals were produced by routine methods (Freshney, 1987). Twenty-four hours after plating, geneticin (400 μg/ml) was added to cultures originating from both types of transgenic and the control rats, and replaced every three days with fresh medium. When required, cells were subcultured (1:2) to prevent their becoming confluent. Cell counts were made manually in 20 fields chosen randomly, and the values at each time point, after allowing for changes due to subculturing, were aggregated (Table 3). […] Ten days later, cell counts were again made of 20 fields chosen at random. […] The results were as expected in view of the specific and non-specific expression of the positive and negative selection markers, in the TG/TK/neo^r and CD2/neo^r transgenics, respectively.
(§5) Drugs were added at day 2 in culture. Values are related to the number of cells found in control cultures without drug additions at various times after plating, and allow for dilutions resulting from passaging. Figures are the means of three separate determinations, the standard errors all being less than 15% of the mean.

For test [5], the system named is thyroid cells derived from TG/TK/neo^r transgenic rats. The experiment in a line: Survival of thyroid cells from TG/TK/neo^r transgenic rats with drugs. It counts as cell-based, rat. The conditions noted are these: for Survival of thyroid cells (related to number of cells in control cultures without drug): TG/TK/neo^r rat cells, drugs added at day 2, geneticin 400 μg/ml, ACG 10 μg/ml. How it is done: as §4, §5

Test [6] relates to thyroid cells derived from CD2/neo^r transgenic rats. The test can be described thus: Survival of thyroid cells from CD2/neo^r transgenic rats with drugs. The class given is cell-based. To be noted: CD2/neo^r rat cells, drugs added at day 2, geneticin 400 μg/ml, ACG 10 μg/ml. How it is done:
as §4, §5

A further test has as its system thyroid follicle cells. The test can be described thus: Ablation of thyroid follicle cells in vivo. Also noted: species or system rat.
Where [7] appears, read: transgenic rats treated with ACG for 12 days.

For `Nc1nc(=O)[nH]cc1F` [5FC, 5-fluorocytosine], the “Effect of 5-fluorocytosine on fibroblast cells” value in test [1] (control animals, 100 μg/ml) is given as “had no effect”; in test [2] (TG/TK/neo^r transgenic, 100 μg/ml), “had no effect”. Besides, the “Survival of lung fibroblast cells (related to number of cells in control cultures without drug)” value is listed as 101 in test [1] (day 1 in culture); 105 in test [1] (day 3 in culture); 98 in test [1] (day 5 in culture); 97 in test [1] (day 7 in culture); 93 in test [1] (day 9 in culture); 96 in test [1] (day 11 in culture). Also, the “Survival of lung fibroblast cells (related to number of cells in control cultures without drug)” value turned out to be 98 in test [2] (day 1 in culture); 96 in test [2] (day 3 in culture); 95 in test [2] (day 5 in culture); 92 in test [2] (day 7 in culture); 92 in test [2] (day 9 in culture); 93 in test [2] (day 11 in culture). Besides, the “Survival of lung fibroblast cells (related to number of cells in control cultures without drug)” value in test [3] (day 1 in culture) was 94; in test [3] (day 3 in culture) it was 5; in test [3] (day 5 in culture), 3; in test [3] (day 7 in culture) it was 3; in test [3] (day 9 in culture), 4; in test [3] (day 11 in culture), 4. Besides, the “Difference in cell counts between cultures in the absence and presence of 5FC” value in test [1] (control rats) was “no significant difference in cell counts”. Further, the “Originally-plated cells died, or were non-functional (failure to exclude trypan blue)” value in test [3] (CD2/neo^r transgenic, 100 μg/ml, after 10 days culture in the presence of 5FC) came to 94%.
For `Nc1nc2c(ncn2COCCO)c(=O)[nH]1` [ACG, acycloguanosine], the “Survival of thyroid cells under ACG treatment” value in test [4] (control animals, 10 μg/ml ACG) was “the cells derived from the control animals did”; in test [5] (TG/TK/neo^r transgenic, 10 μg/ml ACG), “did not survive ACG treatment”. Further, the “Survival of thyroid cells (related to number of cells in control cultures without drug)” value in test [4] (day 1 in culture) is reported as 94; in test [4] (day 3 in culture), 97; in test [4] (day 5 in culture) it was 98; in test [4] (day 7 in culture), 91; in test [4] (day 9 in culture) it was 92; in test [4] (day 11 in culture) it was 102. Besides, the “Survival of thyroid cells (related to number of cells in control cultures without drug)” value is reported as 98 in test [5] (day 1 in culture); 38 in test [5] (day 3 in culture); 12 in test [5] (day 5 in culture); 10 in test [5] (day 7 in culture); 8 in test [5] (day 9 in culture); 7 in test [5] (day 11 in culture). Also, the “Survival of thyroid cells (related to number of cells in control cultures without drug)” value in test [6] (day 1 in culture) was 98; in test [6] (day 3 in culture) it was 90; in test [6] (day 5 in culture), 93; in test [6] (day 7 in culture) it was 93; in test [6] (day 9 in culture), 97; in test [6] (day 11 in culture), 88. Besides, the “Effect on T3 and T4” value in the test on thyroid follicle cells (lower amounts of ACG per day) is “partial loss of T3 and T4”. Also, the “Serum level of T4” value in the test with thyroid follicle cells (transgenic adult female rats, 50 mg ACG per day i.p. for 5 days, seven days after the final injection, N=6) is on record as “less than 2.5 nM”. Further, the “Histochemical analysis of thyroid glands” value in the test on thyroid follicle cells (setting [7]) is “almost complete loss of follicular cells”. Besides, the “Thyroid gland weight, of the original weights” value with thyroid follicle cells (setting [7]) turned out to be 7%.
